Experiment [1] deals with T1, human GRK5WT (Homo sapiens, UniProt P34947).
T1 construct: human GRK5WT or GRK5D311N (residues 1–590 followed by a hexahistidine tag); hexahistidine (C); made in house; host or cells: E. coli Rosetta (DE3)
In words: GRK kinase inhibition assay ([γ-32P]-ATP phosphorylation of tubulin or Rho*). Conditions: for change in inhibition potency caused by K3Cit: GRK5 phosphorylation of tubulin and Rho*. It counts as biochemical. As for the experimental part: GRK inhibition assays were performed in 20 mM Hepes (pH 7.0), 2 mM MgCl2, 0.025% n-dodecyl-β-D-maltoside with 50 nM human GRK5WT as purified previously. […] A range of salt concentrations was added 30 s prior to 5 min reactions initiated by exposing samples to light followed by addition of 5 μM ATP supplemented with radioactive [γ-^32P]-ATP at 60 Ci/mmol (PerkinElmer Life Sciences) at room temperature. […] Reactions were quenched with 4X SDS loading buffer, separated in SDS-PAGE, dried, and read by phosphorimaging and then quantified via a Personal Molecular Imager and Quantity One 1-D Analysis Software. […] At least three replicates were obtained to calculate the mean and standard deviation of IC50 values. See Figure S4 for representative raw and processed data.

The target of experiment [2] is T2, GRK5 (Homo sapiens, UniProt P34947).
T2 construct: human GRK5WT or GRK5D311N (residues 1–590 followed by a hexahistidine tag); hexahistidine (C); made in house; host or cells: E. coli Rosetta (DE3)
Kind of experiment: Differential scanning fluorimetry thermal shift assay. In kind it is binding. Conditions: for increase of Tm of GRK5 upon ligand binding: relative to unliganded GRK5, ligand 5 mM, 2 μM GRK5; for effect of salt on Tm of ATP·Mg2+-bound GRK5 / effect of salt on Tm of GRK5: increasing salt concentrations; for effect of salt on Tm of GRK5: no ligand. As for the experimental part: Samples were mixed with Protein Thermal Shift dye to measure unfolding as a function of temperature. The Tm values were subtracted by the Tm of GRK5 in the same condition without the addition of salt to obtain ΔTm. Error bars correspond to SD (box) from three or more replicates (circles). […] Orange corresponds to GRK5 with Sgv and pink with AMP in buffer alone (20 mM Hepes [pH 7.2], 2 mM MgCl2). A one-tailed t test was used to determine significance (ns: p > 0.05, ∗p ≤ 0.05, ∗∗p ≤ 0.01, ∗∗∗p ≤ 0.001, and ∗∗∗∗p ≤ 0.0001). GRK, G protein–coupled receptor kinase; ns, not significant; Sgv, sangivamycin.
Full-length WT GRK5, GRK2, or GRK6 at a final concentration of 2 μM in the absence or the presence of different ligands were mixed with the Protein Thermal Shift Dye at a final concentration of 1X in buffer containing 20 mM Hepes (pH 7.2), 2 mM MgCl2, and 1 mM TCEP in addition to different concentrations of salts. The melting points were measured using a QuantStudio5 Real-Time PCR System in a 384-well transparent plate with a final reaction volume of 10 μl per well. […] Ligands including ATP, AMP–PNP, ADP, AMP, and Sgv were added at a final concentration of 5 mM. Readouts were measured and analyzed with Protein Thermal Shift Software to obtain Boltzmann Tm values. At least three replicates of individual runs from the same preparation of protein were performed to obtain the mean and standard deviation of Tm values.
(In general: Differential scanning fluorimetry follows unfolding on heating by fluorescence.)

Experiment [3] concerns the target T3, GRK2 (Homo sapiens, UniProt P25098, S670A).
T3 construct: Full-length WT GRK5, GRK2, or GRK6 at a final concentration of 2 μM; made in house; host or cells: Sf9 insect cells
T3 sequence (P25098 1-689 S670A): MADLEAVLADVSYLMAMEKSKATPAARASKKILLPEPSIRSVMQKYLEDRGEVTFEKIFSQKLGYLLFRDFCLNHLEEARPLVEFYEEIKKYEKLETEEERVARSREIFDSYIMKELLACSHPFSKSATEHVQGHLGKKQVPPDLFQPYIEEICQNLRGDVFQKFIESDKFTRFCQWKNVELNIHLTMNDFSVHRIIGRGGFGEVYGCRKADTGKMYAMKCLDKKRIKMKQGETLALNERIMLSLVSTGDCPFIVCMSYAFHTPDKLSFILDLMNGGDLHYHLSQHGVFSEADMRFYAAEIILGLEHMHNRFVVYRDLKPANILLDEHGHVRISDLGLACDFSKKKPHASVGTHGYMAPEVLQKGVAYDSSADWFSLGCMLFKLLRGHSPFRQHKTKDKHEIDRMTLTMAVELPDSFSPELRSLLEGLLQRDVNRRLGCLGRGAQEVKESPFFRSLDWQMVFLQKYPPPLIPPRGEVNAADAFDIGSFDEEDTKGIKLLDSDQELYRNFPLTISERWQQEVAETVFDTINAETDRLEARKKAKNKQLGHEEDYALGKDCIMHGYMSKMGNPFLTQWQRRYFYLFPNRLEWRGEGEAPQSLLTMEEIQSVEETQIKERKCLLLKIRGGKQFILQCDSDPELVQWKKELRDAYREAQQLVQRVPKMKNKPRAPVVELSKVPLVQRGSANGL
In words: GRK kinase inhibition assay ([γ-32P]-ATP phosphorylation of tubulin). It counts as biochemical. The following applies: substrate tubulin; for IC50: mean ± SD. As for the experimental part: Following the protocol in Ref. ([19]), pMAL-vector plasmids bearing DNA encoding human GRK5WT or GRK5D311N (residues 1–590 followed by a hexahistidine tag) were transfected into E. coli Rosetta (DE3) and induced with isopropyl β-D-1-thiogalactopyranoside. Cells lysed using an Emulsiflex-C3 were treated with DNase I and 1 mM MgCl2 at room temperature for 10 min before centrifugation at 40,000g. GRK5 in the soluble fraction was then loaded onto a Ni^2+–NTA column for metal-affinity purification. Eluted GRK5 fractions were then loaded onto a tandem HiTrap Q HP-HiTrap SP HP column to capture impurities in the Q HP column, and GRK5 was eluted from the SP column using an NaCl concentration gradient from 100 to 600 mM. […] Purified GRK5 was used directly in crystallization or flash-frozen with liquid nitrogen and stored at −80 °C for later usage. Human GRK2S670A and GRK6FL_pal(−) are expressed in Sf9 insect cells and purified as described previously ([26], [31]). The S670A mutation in GRK2 eliminates a heterogenous mitogen-activated kinase phosphorylation site, and GRK6FL_pal(−) was used to remove palmitoylation sites in order to make expression and purification easier.
GRK inhibition assays were performed in 20 mM Hepes (pH 7.0), 2 mM MgCl2, 0.025% n-dodecyl-β-D-maltoside with 50 nM human GRK5WT as purified previously. […] A range of salt concentrations was added 30 s prior to 5 min reactions initiated by exposing samples to light followed by addition of 5 μM ATP supplemented with radioactive [γ-^32P]-ATP at 60 Ci/mmol (PerkinElmer Life Sciences) at room temperature. […] Reactions were quenched with 4X SDS loading buffer, separated in SDS-PAGE, dried, and read by phosphorimaging and then quantified via a Personal Molecular Imager and Quantity One 1-D Analysis Software. Data were analyzed via GraphPad Prism (GraphPad Software, Inc), and three-parameter dose-dependent curves (Hill coefficient = −1) plotting phosphate transferred against inhibitor concentration were used for the calculation of IC50 values. At least three replicates were obtained to calculate the mean and standard deviation of IC50 values. See Figure S4 for representative raw and processed data.

The target in experiment [4] is T4, GRK6 (Homo sapiens, UniProt P43250, C561S/C562S/C565S).
T4 construct: Full-length WT GRK5, GRK2, or GRK6 at a final concentration of 2 μM; made in house; host or cells: Sf9 insect cells
The experiment is described as above. It counts as biochemical. Conditions: substrate tubulin; for IC50: mean ± SD.

Setting [5] is: IC50 no K3Cit vs with 2 mM K3Cit, substrate tubulin.
The mark [6] stands for this setting: IC50 no K3Cit vs with 6 mM K3Cit, substrate Rho* in ROS.
Setting [7] is: read-out: IC50 (no K3Cit), substrate Rho* in ROS, without K3Cit, mean and SD.
Setting [8] is: read-out: IC50 (no K3Cit), substrate tubulin, without K3Cit, mean and SD.

Where two headings read alike, the source gives them in different places.

T2 sequence (P34947 whole entry, the tested form may be a part): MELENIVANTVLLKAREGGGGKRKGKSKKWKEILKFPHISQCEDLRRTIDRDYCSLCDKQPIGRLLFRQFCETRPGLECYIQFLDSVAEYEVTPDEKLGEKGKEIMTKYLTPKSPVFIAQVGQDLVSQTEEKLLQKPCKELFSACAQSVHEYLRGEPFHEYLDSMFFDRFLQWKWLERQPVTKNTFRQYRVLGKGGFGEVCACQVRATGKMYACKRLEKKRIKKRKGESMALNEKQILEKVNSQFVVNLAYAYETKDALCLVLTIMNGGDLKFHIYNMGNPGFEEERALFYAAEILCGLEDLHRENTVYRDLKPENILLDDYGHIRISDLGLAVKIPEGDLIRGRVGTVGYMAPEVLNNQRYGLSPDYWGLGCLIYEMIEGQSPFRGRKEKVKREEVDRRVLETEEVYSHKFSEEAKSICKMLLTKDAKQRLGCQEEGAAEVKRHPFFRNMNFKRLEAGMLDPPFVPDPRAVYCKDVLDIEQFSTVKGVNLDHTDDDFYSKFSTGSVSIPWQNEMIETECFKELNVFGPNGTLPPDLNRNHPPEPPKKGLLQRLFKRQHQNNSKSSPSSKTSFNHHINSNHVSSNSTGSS
T1 sequence (P34947 whole entry, the tested form may be a part): as above
T4 sequence (P43250 whole entry C561S/C562S/C565S): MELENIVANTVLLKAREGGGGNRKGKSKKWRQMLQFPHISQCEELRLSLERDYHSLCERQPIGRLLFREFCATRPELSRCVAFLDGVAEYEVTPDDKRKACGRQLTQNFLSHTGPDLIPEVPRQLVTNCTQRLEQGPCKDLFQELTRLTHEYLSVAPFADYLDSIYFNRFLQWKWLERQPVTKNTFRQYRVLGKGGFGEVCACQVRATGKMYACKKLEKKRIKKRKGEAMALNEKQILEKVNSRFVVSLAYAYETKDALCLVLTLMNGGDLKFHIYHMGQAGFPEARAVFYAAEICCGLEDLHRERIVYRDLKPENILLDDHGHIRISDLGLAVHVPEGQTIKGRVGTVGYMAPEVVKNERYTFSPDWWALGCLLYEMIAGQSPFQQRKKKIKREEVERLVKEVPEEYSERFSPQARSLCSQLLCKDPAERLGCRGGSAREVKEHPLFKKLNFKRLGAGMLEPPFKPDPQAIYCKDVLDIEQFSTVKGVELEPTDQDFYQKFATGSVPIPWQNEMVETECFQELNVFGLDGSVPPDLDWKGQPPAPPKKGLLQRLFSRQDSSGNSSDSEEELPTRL

For the compound `Nc1ncnc2c1ncn2[C@@H]1O[C@H](COP(=O)(O)OP(=O)(O)O)[C@@H](O)[C@H]1O` [ADP], the “change in inhibition potency caused by K3Cit” value in experiment [1] is reported as “did not cause changes”. Moreover, the Fold-change was 3 in experiment [1] (setting [5]) and 1.5 in experiment [1] (setting [6]). Also, the IC50 – broadly, the concentration needed to halve the response being measured – was 56 ± 6 µM in experiment [1] (setting [7]) and 28 ± 1 µM in experiment [1] (setting [8]).
Turning to `Nc1ncnc2c1ncn2[C@@H]1O[C@H](COP(=O)(O)O)[C@@H](O)[C@H]1O` [AMP], in experiment [1], the “change in inhibition potency caused by K3Cit” value is recorded as “did not cause changes”. Besides, the Fold-change in experiment [1] (setting [5]) is reported as 1.5; in experiment [1] (setting [6]) it was 2. Further, the IC50 stood at 1000 ± 100 µM in experiment [1] (setting [7]) and 700 ± 200 µM in experiment [1] (setting [8]). For the same compound, the “increase of Tm of GRK5 upon ligand binding” value in experiment [2] was “does not stabilize GRK5 as much as Sgv”.
For `Nc1ncnc2c1ncn2[C@@H]1O[C@H](COP(=O)(O)OP(=O)([O-])OP(=O)([O-])O)[C@@H](O)[C@H]1O.[Mg+2]` [ATP·Mg^2+], the “increase of Tm of GRK5 upon ligand binding” value in experiment [2] was determined as 9 °C.
For `O.O=C([O-])CC(O)(CC(=O)[O-])C(=O)[O-].[K+].[K+].[K+]` [K3Cit, potassium citrate tribasic monohydrate], in experiment [3], the “GRK2 (Hill slope)” value is reported as −1.3 and the IC50 is 800 ± 500 µM. In experiment [4], the “GRK6 (Hill slope)” value is recorded as −0.9 and the IC50 was 900 ± 500 µM. The “decrease of Tm of GRK5” value in experiment [2] (in the presence of ATP·Mg2+, 20 mM K3Cit) lay in the range of 2 to 3 °C. Besides, the “effect of salt on Tm of ATP·Mg2+-bound GRK5” value in experiment [2] (in the presence of ATP·Mg2+) is “biphasic behavior”. Besides, the “effect of salt on Tm of Sgv-bound GRK5” value in experiment [2] (in the presence of Sgv) is given as “further increased”. The “effect of salt on Tm of GRK5” value in experiment [2] is “raised the Tm of GRK5 proportionally”.
`[Cl-].[K+]` [KCl]: in experiment [3], the “GRK2 (Hill slope)” value was −1.6. Further, the IC50 in experiment [3] is 20000 ± 2000 µM; in experiment [1] (substrate Rho* (LMNG), mean ± SD, read-out: GRK5 IC50) it was 11000 ± 2000 µM; in experiment [1] (substrate Rho* (ROS), mean ± SD, read-out: GRK5 IC50), 18000 ± 10000 µM; in experiment [1] (substrate tubulin, mean ± SD, read-out: GRK5 IC50), 55000 ± 6000 µM; in experiment [4], 14000 ± 4000 µM. Also, the “lower potency than the corresponding citrate salts” value in experiment [1] (GRK5, tubulin as the substrate) was “about 35 fold”. Also, the “GRK5 (Hill slope)” value is recorded as −1.6 in experiment [1] (substrate Rho* (LMNG)), −1.9 in experiment [1] (substrate Rho* (ROS)) and −1.7 in experiment [1] (substrate tubulin). For the same compound, the “GRK6 (Hill slope)” value in experiment [4] is listed as −2.3. Further, the “effect of salt on Tm of ATP·Mg2+-bound GRK5” value in experiment [2] (in the presence of ATP·Mg2+) was “decreased”. For the same compound, in experiment [2], the “effect of salt on Tm of GRK5” value is listed as “did not increase GRK5 stability at any concentration”.
With `O=C([O-])CC(O)(CC(=O)[O-])C(=O)[O-].[Na+].[Na+].[Na+]` [Na3Cit, sodium citrate], in experiment [3], the “GRK2 (Hill slope)” value is recorded as −1.6 and the IC50 was found to be 700 ± 200 µM. For the same compound, in experiment [4], the “GRK6 (Hill slope)” value is listed as −1.2 and inhibition was half-maximal at 1300 ± 900 µM (IC50).
Take `[Cl-].[Na+]` [NaCl]: in experiment [3], the “GRK2 (Hill slope)” value is given as −1.2 and the IC50 was 21000 ± 2000 µM. Also, in experiment [4], the “GRK6 (Hill slope)” value is recorded as −1.3 and half-maximal inhibition (IC50) was put at 8000 ± 7000 µM. Also, the “effect of salt on Tm of ATP·Mg2+-bound GRK5” value in experiment [2] (in the presence of ATP·Mg2+) is on record as “decreased”. Besides, the “effect of salt on Tm of GRK5” value in experiment [2] is reported as “reduced it”.
With `NC(=O)c1cn([C@@H]2O[C@H](CO)[C@@H](O)[C@H]2O)c2ncnc(N)c12` [Sgv, sangivamycin], the “reduction of the apparent IC50 by K3Cit” value in experiment [1] (GRK5 phosphorylation of tubulin, 2 mM K3Cit) is “eightfold”. The IC50 in experiment [1] (IC50 (no K3Cit), substrate Rho* in ROS, without K3Cit, mean and SD) came out at 4.5 ± 0.5 µM; in experiment [1] (IC50 (no K3Cit), substrate tubulin, without K3Cit, mean and SD) it was 11 ± 3 µM. For the same compound, the Fold-change in experiment [1] (setting [5]) is 8; in experiment [1] (setting [6]), 6. Besides, the “increase of potency of inhibition by K3Cit” value in experiment [1] (tubulin and receptor Rho* phosphorylation) is listed as about 8 fold. In experiment [2], the “increase of Tm of GRK5 upon ligand binding” value was 5 °C.

The record behind these values is PMC12268638, “Structural insights into the catalytic cycle of G protein–coupled receptor kinase 5 and a possible regulatory site for potassium ion” (The Journal of Biological Chemistry, 2025).
